# Results taken from patent publication US20220348966A1, “SYSTEM AND METHOD FOR INCREASED ALCOHOL TOLERANCE AND PRODUCTION IN YEAST” (The Trustees of Princeton University, priority 2019, published 2022).
# Where two headings read alike, the source gives them in different places.
# What was measured:
# zwf1Δ strain = format: cell-based, S. cerevisiae; conditions: for sensitivity / cell growth in presence of alcohol compared to wild type: FIG. 5, various alcohols
# Protocol: (§1) Growth of 19 hypersensitive strains was measured in liquid SC medium containing 0.6%, 1.0%, or 1.4% isobutanol, or 8% ethanol. These growth experiments were initiated at an OD600 of 0.1, unlike in previous screens, which started with much smaller inoculums (from a 96-pin replicator).
# (§2) The sensitivity of gnd1Δ and zwf1Δ strains to other alcohols including methanol, 1-propanol, 1-butanol, 2-butanol, tert-butanol, 1-pentanol, 2-methyl-1-butanol, isopentanol, and 1-hexanol was explored.
# gnd1Δ strain = format: cell-based, S. cerevisiae; conditions: for sensitivity / cell growth in presence of alcohol compared to wild type: FIG. 5, various alcohols
# Protocol: as §1, §2
# gln3Δ strain [1] = format: cell-based, S. cerevisiae; conditions: for tolerance compared to wild type strain: liquid medium
# Source text: (§3) The six hypertolerant strains were examined in liquid medium containing heavy alcohols. In this example, the liquid medium contained 1.5% or 1.6% isobutanol, or 8% ethanol.
# Tolerance of the gln3Δ strain to other alcohols was explored by measuring its growth in liquid medium containing methanol, 1-propanol, 1-butanol, 2-butanol, tert-butanol, 1-pentanol, 2-methyl-1-butanol, isopentanol, or 1-hexanol.
# yeast = conditions: cited from earlier work
# nha1Δ strain = conditions: 8% ethanol
# Protocol: as §1, §2
# gcn3Δ strain = format: cell-based, S. cerevisiae
# Protocol: (§4) Utilizing the LC50 results, one can screen a gene deletion library (here, the BY4741 library [Giaever et al., 2002; Winzeler et al., 1999]) for changes in cell growth in liquid SC medium containing the heavy alcohol at an amount that is 0.1% or 0.2% (v/v) less than the LC50. Here, 1.4% (v/v) isobutanol was used. […] To quantify these phenotypes, a tolerance factor (TF) was defined as the ratio of the OD600 of cells grown with isobutanol in the medium after 24 h, divided by the OD600 of cells grown in the absence of isobutanol for the same amount of time. Thus, one can classify deletion strains as having increased sensitivity or tolerance to isobutanol based on the comparison of their TF values to that of the wild type strain in, e.g., 1.4% isobutanol measured during the screen. […] To assess the specificity of changes in tolerance to isobutanol, the growth of these selected strains in media containing ethanol can also be measured: 8% for sensitive strains or 9% for tolerant strains.
# as §3
# vps55Δ strain = format: cell-based, S. cerevisiae; conditions: FIG. 6
# Source text: as §3
# avt3Δ strain = format: cell-based, S. cerevisiae; conditions: FIG. 6
# Source text: as §3
# gnp1Δ strain = format: cell-based, S. cerevisiae; conditions: FIG. 6
# Source text: as §3
# ydr391cΔ strain = format: cell-based, S. cerevisiae; conditions: FIG. 6
# Source text: as §3
# BY4741 wild type strain = conditions: for cell growth (OD600): 24 h
# Protocol: The Tolerance Factor (TF) is defined as the ratio of the OD600 of cells grown with the heavy alcohol in the medium after 24 h, divided by the OD600 of cells grown in the absence of the heavy alcohol for the same amount of time.
# A first example is for the identification of the LC50 (lethal concentration for 50% of cells) of isobutanol for the BY4741 wild type strain of S. cerevisiae, the strain from which a gene deletion library was developed (Giaever et al., 2002; Winzeler et al., 1999). […] The cell growth of BY4741 in synthetic complete (SC) liquid medium containing concentrations of isobutanol ranging from 0.0% to 1.8% (v/v) was monitored by measuring the optical density at 600 nm (OD600) after 24-h cultivation.
# as §4
# For most screens and analyses of alcohol tolerance, wild type and deletion strains can be cultured in synthetic complete (SC) medium made inhouse (see Table 1) at 30° C., and 2% glucose. Strains overexpressing PPP genes can be cultured in SC medium lacking uracil (SC-Ura) made inhouse.
# vps34Δ strain = assay: Growth of hypersensitive strains in liquid SC medium; format: cell-based, S. cerevisiae; conditions: 0.6% isobutanol, initial OD600 0.1
# BY4741 = assay: Serial dilutions spotted onto SC agar plates; format: cell-based, S. cerevisiae; conditions: SC agar containing 2.4% isobutanol
# Source text: To evaluate isobutanol growth inhibition on solid medium, serial dilutions of BY4741 were spotted onto SC agar plates containing 0.0% to 3.0% isobutanol. […] The higher LC50 determined from agar plates may be the result of higher cell tolerance to isobutanol in solid media; however, it could also reflect the difficulty in accurately preparing solid media with specific isobutanol concentrations due to isobutanol evaporation during the pouring of hot agar.
# gln3Δ strain [2] = assay: Growth on SC agar medium; format: cell-based, S. cerevisiae; conditions: 2.7% isobutanol
# Source text: The gln3Δ strain can grow on SC agar medium containing 2.7% isobutanol.
# trp3Δ strain = assay: Gene deletion library screen for isobutanol sensitivity; format: cell-based, S. cerevisiae; conditions: second screen, 0.6% and 1.2% isobutanol
# Source text: (§5) Here, 1.4% (v/v) isobutanol was used.
# (§6) Out of the 164 sensitive strains, the 46 strains that continue to display increased sensitivity to isobutanol at lower concentrations (TF <0.5 in 0.6% isobutanol or TF <0.1 in 1.2% isobutanol) can be categorized as hypersensitive. These strains are highlighted in gray in FIGS. 2A-2C. Among the 36 strains with increased tolerance, 6 continue to display increased tolerance (TF >0.4) in 1.5% isobutanol, which we categorize as hypertolerant (FIG. 3).
# (§7) Next, a Gene Ontology (GO) enrichment analysis of genes deleted in the 164 most sensitive and 36 most tolerant strains can be performed. […] In fact, five strains harboring deletions in the TRP gene family, encoding enzymes in tryptophan biosynthesis, show increased isobutanol sensitivity (with trp2Δ, trp3Δ, and trp5Δ being hypersensitive strains). One can examine the increased sensitivity to isobutanol caused by TRP1 deletion because it is an auxotrophic marker in commonly used strains, such as CEN.PK- and SEY6210-derived strains. […] Furthermore, after repairing the TRP1 allele in CEN.PK2-1C and SEY6210, wild-type (BY4741) levels of isobutanol tolerance are recovered.
# trp5Δ strain = assay: as above; format: cell-based, S. cerevisiae; conditions: second screen, 0.6% and 1.2% isobutanol
# Source text: as §5, §6, §7
# trp2Δ strain = assay: as above; format: cell-based, S. cerevisiae; conditions: second screen, 0.6% and 1.2% isobutanol
# Source text: as §5, §6, §7
# gcn4Δ strain = assay: Gene deletion library screen, tolerance factor in liquid SC medium; format: cell-based, S. cerevisiae; conditions: 1.4% isobutanol
# Source text: as §5
# pep12Δ strain = assay: Growth of hypersensitive strains in liquid SC medium; format: cell-based, S. cerevisiae; conditions: 0.6% isobutanol, initial OD600 0.1
# [3] = 0.6% isobutanol, initial OD600 0.1
smiles,measurement,setting,value
CO [methanol],sensitivity / cell growth in presence of alcohol compared to wild type,zwf1Δ strain,neither strain demonstrates significantly increased sensitivity
same,sensitivity / cell growth in presence of alcohol compared to wild type,gnd1Δ strain,neither strain demonstrates significantly increased sensitivity
same,tolerance compared to wild type strain,gln3Δ strain [1]; FIG. 7,does not statistically increase tolerance
"CCCCCCO [Example 1-hexanol, 1-hexanol]",tolerance compared to wild type strain,gln3Δ strain [1]; FIG. 7,does not statistically increase tolerance
"CCCCCO [Example 1-pentanol, 1-pentanol]",tolerance compared to wild type strain,gln3Δ strain [1]; FIG. 7,does not statistically increase tolerance
CC(C)(C)O [tert-butanol],tolerance compared to wild type strain,gln3Δ strain [1]; FIG. 7,dramatically enhanced tolerance
CCC(C)CO (stereo not shown) [2-methyl-1-butanol],OD600 relative to wild type strain,"gln3Δ strain [1]; 0.55% 2-methyl-1-butanol, FIG. 7",11.4 fold
same,tolerance compared to wild type strain,gln3Δ strain [1]; FIG. 7,dramatically enhanced tolerance
"CCC(C)O (stereo not shown) [Example 2-butanol, 2-butanol]",tolerance compared to wild type strain,gln3Δ strain [1]; FIG. 7,"smaller, but statistically significant, increase in tolerance"
"CCCO [Example 1-propanol, 1-propanol]",sensitivity / cell growth in presence of alcohol compared to wild type,zwf1Δ strain,neither strain demonstrates significantly increased sensitivity
same,sensitivity / cell growth in presence of alcohol compared to wild type,gnd1Δ strain,neither strain demonstrates significantly increased sensitivity
same,tolerance compared to wild type strain,gln3Δ strain [1]; FIG. 7,does not statistically increase tolerance
"CCO [Ethanol, ethanol]",ethanol concentration endured,yeast; S. cerevisiae,≤ 18 % (v/v)
same,sensitivity compared to wild type strain,zwf1Δ strain; 8% ethanol,no more sensitive
same,sensitivity / cell growth in presence of alcohol compared to wild type,zwf1Δ strain,neither strain demonstrates significantly increased sensitivity
same,sensitivity compared to wild type strain,gnd1Δ strain; 8% ethanol,no more sensitive
same,sensitivity / cell growth in presence of alcohol compared to wild type,gnd1Δ strain,neither strain demonstrates significantly increased sensitivity
same,sensitivity compared to wild type strain,"gln3Δ strain [1]; 8% ethanol, FIG. 6",at least as sensitive
same,tolerance compared to wild type strain,gln3Δ strain [1]; FIG. 7,does not statistically increase tolerance
same,sensitivity compared to wild type strain,nha1Δ strain,no more sensitive
same,sensitivity compared to wild type strain,"gcn3Δ strain; 8% ethanol, FIG. 6",at least as sensitive
same,sensitivity compared to wild type strain,vps55Δ strain; 8% ethanol,at least as sensitive
same,sensitivity compared to wild type strain,avt3Δ strain; 8% ethanol,at least as sensitive
same,sensitivity compared to wild type strain,gnp1Δ strain; 8% ethanol,at least as sensitive
same,sensitivity compared to wild type strain,ydr391cΔ strain; 8% ethanol,at least as sensitive
same,Tolerance Factor,BY4741 wild type strain; 8.0% ethanol,0.31
"CCCCO [Example 1-butanol, 1-butanol]",tolerance compared to wild type strain,gln3Δ strain [1]; FIG. 7,does not statistically increase tolerance
"CC(C)CO [Isobutanol, 2-methyl-1-propanol]",Tolerance Factor,vps34Δ strain,less than 0.3
same,toxicity for yeast relative to ethanol,yeast,10 times
same,Tolerance Factor,zwf1Δ strain; [3],less than 0.3
same,Tolerance Factor,gnd1Δ strain; [3],less than 0.3
same,growth compared to wild type,"gln3Δ strain [1]; 1.5% isobutanol, FIG. 6",grow better than the wild type
same,tolerance compared to wild type,"gln3Δ strain [1]; 1.6% isobutanol, FIG. 6",enhanced tolerance
same,increase in isobutanol tolerance compared to wild type,gln3Δ strain [1]; FIG. 7,4.04 fold
same,tolerance compared to wild type strain,gln3Δ strain [1]; FIG. 7,dramatically enhanced tolerance
same,cell growth on agar plates,BY4741,still observable but noticeably inhibited
same,growth on SC agar medium,gln3Δ strain [2],can grow
same,Tolerance Factor,gcn3Δ strain; 1.4% isobutanol,0.98
same,growth compared to wild type,"gcn3Δ strain; 1.5% isobutanol, FIG. 6",grow better than the wild type
same,tolerance compared to wild type,"gcn3Δ strain; 1.6% isobutanol, FIG. 6",enhanced tolerance
same,isobutanol sensitivity class,trp3Δ strain,hypersensitive (TF <0.5 in 0.6% isobutanol or TF <0.1 in 1.2% isobutanol)
same,isobutanol sensitivity class,trp5Δ strain,hypersensitive (TF <0.5 in 0.6% isobutanol or TF <0.1 in 1.2% isobutanol)
same,isobutanol sensitivity class,trp2Δ strain,hypersensitive (TF <0.5 in 0.6% isobutanol or TF <0.1 in 1.2% isobutanol)
same,growth compared to wild type,vps55Δ strain; 1.5% isobutanol,grow better than the wild type
same,tolerance compared to wild type,vps55Δ strain; 1.6% isobutanol,enhanced tolerance
same,growth compared to wild type,avt3Δ strain; 1.5% isobutanol,grow better than the wild type
same,growth compared to wild type,gnp1Δ strain; 1.5% isobutanol,grow better than the wild type
same,tolerance compared to wild type,gnp1Δ strain; 1.6% isobutanol,enhanced tolerance
same,growth compared to wild type,ydr391cΔ strain; 1.5% isobutanol,grow better than the wild type
same,Tolerance Factor,gcn4Δ strain,0.86
same,Tolerance Factor,pep12Δ strain,less than 0.3
same,Tolerance Factor,BY4741 wild type strain; 0.6% isobutanol,0.92
same,Tolerance Factor,BY4741 wild type strain; 1.2% isobutanol,0.72
same,Tolerance Factor,BY4741 wild type strain; 1.4% isobutanol,0.38
same,Tolerance Factor,BY4741 wild type strain; 1.5% isobutanol,0.19
same,Tolerance Factor,BY4741 wild type strain; 1.6% isobutanol,0.11
same,LC50 (lethal concentration for 50% of cells),"BY4741 wild type strain; SC liquid medium, OD600 after 24-h cultivation",~1.5 % (v/v)
same,cell growth (OD600),BY4741 wild type strain; isobutanol 1.4% and 1.5%,moderate inhibition
same,cell growth (OD600),BY4741 wild type strain; isobutanol concentrations above 1.6%,significantly inhibited
same,cell growth (OD600),BY4741 wild type strain; isobutanol concentrations below 1.3%,marginally affected
"CC(C)CCO [isopentanol, 3-methyl-1-butanol]",tolerance compared to wild type strain,gln3Δ strain [1]; FIG. 7,dramatically enhanced tolerance
